# According to patent publication US20070196902A1, “Method of detecting AZT resistance in HIV” (University of Pittsburgh, priority 2006, published 2007):
# How the values were obtained:
# [1] = test system: HIVLAI containing the M41L/L210W/T215Y mutations (AZT^R HIVLAI) passaged in increasing concentrations of AZT; test: AZT susceptibility of virus passaged in increasing AZT, selection starting with AZT^R HIVLAI; single-cycle assay in P4/R5 cells; assay type: cell-based, HIV-1; details: for Fold-Resistance: compared to wild-type passaged without AZT
# Experimental: Selection of AZT-resistant viruses. Resistant virus was selected in two independent experiments by the passage of wild-type HIVLAI or HIVLAI containing the M41L/L210W/T215Y mutations (AZT^R HIVLAI) in MT-2 cells in increasing concentrations of AZT. To initiate each selection experiment, MT-2 cells (1×10^6) were pretreated for two hours with 0.5 μM and 25 μM AZT for wild-type HIVLAI and AZT^R HIVLAI, respectively, before virus was added. Viral replication was monitored by CPE. At +3/4 CPE (3 or 4 syncytia per field at 100× magnified field), cell-free supernatant was harvested and 0.1 ml of supernatant was added to fresh MT-2 cells to initiate a new passage. The concentration of AZT was doubled every three passages. The selection pressure was increased from an initial AZT concentration of 0.5 μM to a final concentration of 32 μM for wild-type HIVLAI, and from 25 μM to 150 μM for the AZT^R HIVLAI. The concentration of drug required to inhibit viral replication by 50% (IC50) was calculated every five passages to identify changes in AZT susceptibility, and fold-resistance was determined by dividing the IC50 of the mutant virus by the IC50 of wild-type HIV-1LAI. The genotype of the passaged virus was determined as described above.
# (§1) Drug susceptibility assays. NRTI susceptibility was determined in P4/R5 cells as described previously (Parikh, U. M., et al. 2005. Antimicrob. Agents Chemother. 49:1139-44). Briefly, threefold dilutions of inhibitor were added to P4/R5 cells in triplicate and cells were infected with an amount of virus that produced 100 relative units of light (RLU) in no drug, virus control wells. After 48 hours, the cells were lysed (Gal-Screen; Tropix/Applied Biosystems, Foster City, Calif.) and the RLU was measured using a ThermoLabSystems luminometer (Waltham, Mass.). The IC50 and fold-resistance were calculated as described above. IC50 values from at least three independent experiments were log10 transformed and compared for statistically significant differences using the two-sample Student's t test.
# Selection of AZT-resistant virus. Two independent AZT selection experiments were conducted. One starting with wild-type HIV-1LAI and the second starting with AZT HIV-1LAI (encoding M41L/L210W/T215Y). Both viruses were serially passaged in MT-2 cells in increasing concentrations of AZT. After every 5 passages, AZT susceptibility was measured in a single-cycle viral replication assay in P4/R5 cells (described in Materials and Methods). Viral RNA was extracted, converted to cDNA and the entire coding region of RT (residues 1-560) was PCR amplified and sequenced to monitor the appearance of mutations. In the selection experiment starting with HIV-1LAI, AZT susceptibility was reduced 66-fold by passage 35 and two polymerase domain TAMs were identified: D67N and K70R (Table 1).
# Wild-type HIVLAI = test: Drug susceptibility assay in P4/R5 cells, recombinant virus; assay type: cell-based, HIV-1; details: Human immunodeficiency virus 1, P4/R5; Wild-type; mean ± SD, at least three experiments; read-out: IC50
# Experimental: as §1
# Construction of mutant recombinant HIV-1. Mutant recombinant plasmid clones of virus were generated by oligonucleotide site-directed mutagenesis as described previously (Shi, C., and J. W. Mellors. 1997. A recombinant retroviral system for rapid […] analysis of human immunodeficiency virus type 1 susceptibility to reverse transcriptase inhibitors. Antimicrob. Agents Chemother. 41:2781-5), using the p6HRT-MO plasmid. p6HRT-MO contains the entire RT and protease coding sequence as previously described (Le Grice, S. F., and F. Gruninger-Leitch. 1990. Rapid purification of homodimer and heterodimer HIV-1 reverse transcriptase by metal chelate affinity chromatography. Eur. J. Biochem. 187:307-14) and four silent restriction sites (Xma I, Mlu I, Xba I, and NgoM IV from the 5′ to 3′ end of RT at codons 14, 358, 490 and 554, respectively). After site-directed mutagenesis (QIAamp kit, QIAGEN, Valencia, Calif.), the mutated RT was ligated into pxxHIV-1LAI MO that contains the entire genome of HIV-1LAI and the same silent restriction sites as p6HRT-MO. Infectious virus was generated by electroporating the mutated xxHIV-1LAI MO plasmid into MT-2 cells as described above. All mutations in recombinant viruses were confirmed by full-length sequencing of the entire RT coding region.
# HIV-1 RT D549N = details: D549N mutation; cited from earlier work
# HIV-1 RT H539N = details: H539N mutation; cited from earlier work
compound,measurement,setting,value
"Cc1cn([C@H]2C[C@H](N=[N+]=[N-])[C@@H](CO)O2)c(=O)[nH]c1=O [AZT, 3′-azido-3′-dideoxythymidine]",IC50,"[1]; Human immunodeficiency virus 1, P4/R5, passage 1, AZT concentration 25 μM",21 µM
same,IC50,"[1]; Human immunodeficiency virus 1, P4/R5, passage 10, AZT concentration 50 μM",34 µM
same,IC50,"[1]; Human immunodeficiency virus 1, P4/R5, passage 25, AZT concentration 100 μM, M41L, D67D/N, L210W, L214F, T215Y",126 µM
same,IC50,"[1]; Human immunodeficiency virus 1, P4/R5, passage 30, AZT concentration 150 μM, M41L, D67D/N, L210W, L214F, T215Y",181 µM
same,IC50,"[1]; Human immunodeficiency virus 1, P4/R5, passage 35, AZT concentration 150 μM, M41L, D67N, L210W, L214F, T215Y",> 810 µM
same,Fold-Resistance,"[1]; passage 25, M41L, D67D/N, L210W, L214F, T215Y",39 fold
same,Fold-Resistance,"[1]; passage 30, M41L, D67D/N, L210W, L214F, T215Y",62 fold
same,IC50,Wild-type HIVLAI,0.2 ± 0.1 µM
same,increase in resistance (reduced susceptibility),HIV-1 RT D549N,12 fold
same,increase in resistance (reduced susceptibility),HIV-1 RT H539N,180 fold
